Key:
HeLa [1] = test: BrdU incorporation (proliferation); assay type: cell-based, human; set-up: key: 0 for no activity; 1 for a moderate inhibition; 2 for strong inhibition of proliferation; settings: 3uM, 48 h
Procedure: (§1) Adherent cells are seeded out at 2 - 4*10^4 cells/well/ml in 24 well tissue culture plates 24 h prior to treatment. Suspension cells are seeded out at 2*10^5 cells/ml/well in 24 well plates. Compounds are added leading to final concentrations of 3 µM and 10 µM, respectively. Subsequently, BrdU (Molecular Probes #B-23151) at 10 µM final concentration is added and the plates are incubated for 48 h. After the incubation cells are processed according to standard procedures. The detection of the incorporated BrdU is done with the anti-bromodeoxyuridine Mab PRB-1, Alexa Fluor 660 conjugate (Molecular Probes #A-21306). The analysis is performed on a FACSCalibur™ by monitoring the fluorescence activity on FL3. The readout reflects DNA synthesis which is a hallmark for proliferation. The scores are defined the following: 0 for no activity, 1 for a moderate inhibition and 2 for strong inhibition of proliferation. Table 7 indicates inhibitory activities of several tested compounds on proliferation.

Jurkat [2] = test: BrdU incorporation (proliferation); assay type: cell-based, human; set-up: key: 0 for no activity; 1 for a moderate inhibition; 2 for strong inhibition of proliferation; settings: 48 h
Procedure: as §1

HeLa [3] = test: PI staining for cell cycle distribution; assay type: cell-based, human; set-up: key: 0 indicates no occurrence at all; 1 for weak; 2 for strong occurrence; settings: HeLa 10 µM, 24 h
Outline: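 Cells were seeded 24 h before treatment, then exposed 24 h to compound at 3 µM or 10 µM final. After ethanol fixation they were stained with 50 µg/ml PI for 30 min at 37°C and analysed by flow cytometry. SubG1 peak and G2M arrest were each scored 0 (none), 1 (weak) or 2 (strong).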

K562 = test: Hoechst 33342 nuclear staining (Table 3); assay type: cell-based, human; set-up: key: 0 relating to no activity; 1 relating to weak activity comprising less than 50% of the cells; score 2 relating to strong activity comprising more than 50% of the cells
Outline: (§2)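 Adherent cells (3-5×10^3, pre-spread 24 h) or suspension cells (8-10×10^3) treated with compounds at 10, 3, 1 and 0.3 µM for 24 or 48 h, then Hoechst 33342 stained for 30 min. Apoptotic nuclear morphology scored by fluorescence microscopy: 0 none, 1 weak (<50% cells), 2 strong (>50% cells).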

HeLa [4] = test: Hoechst 33342 nuclear staining (Table 3); assay type: cell-based, human; set-up: key: 0 relating to no activity; 1 relating to weak activity comprising less than 50% of the cells; score 2 relating to strong activity comprising more than 50% of the cells
Outline: as §2

KB = test: Hoechst 33342 nuclear staining (Table 3); assay type: cell-based, human; set-up: key: 0 relating to no activity; 1 relating to weak activity comprising less than 50% of the cells; score 2 relating to strong activity comprising more than 50% of the cells
Outline: as §2

Jurkat [5] = test: Hoechst 33342 nuclear staining (Table 3); assay type: cell-based, human; set-up: key: 0 relating to no activity; 1 relating to weak activity comprising less than 50% of the cells; score 2 relating to strong activity comprising more than 50% of the cells
Outline: as §2

A20 = test: AnnexinV/7-AAD staining; assay type: cell-based, mouse; settings: A20, 10 µM, 24 h treatment
Outline: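 Cells treated with compound at 10 µM final for 24 h, then stained with AnnexinV-GST/anti-GST Alexa 488 and 7-AAD and analysed by flow cytometry. Percent positive cells scored as 0 (<10%), 1 (10–50%) or 2 (>50%).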

Question: Which “BrdU incorporation (inhibition of proliferation)” value (HeLa [1]) does the source give for `CCC1Cc2cc(OC)c(OC)cc2-c2cc3nc4ccccc4nc3n21` (centres unmarked) [compound 13] here?
Answer: 1

Question: And the “BrdU incorporation (inhibition of proliferation)” value (Jurkat [2]; 3uM)?
Answer: 2

Question: And the “BrdU incorporation (inhibition of proliferation)” value (Jurkat [2]; 10uM)?
Answer: 2

Question: What about the “G2M (increase of the cell population arrested in G2M phase)” value (HeLa [3]) of the same molecule?
Answer: 0

Question: What about the “subG1 (generation of a subG1 peak indicative for DNA fragmentation)” value (HeLa [3]) of the same molecule?
Answer: 0

Question: What about the “Hoechst 33342 nuclear staining” value (K562; K562, 24h, conc 0.3 (µM)) of the same molecule?
Answer: 0

Question: What about the “Hoechst 33342 nuclear staining” value (K562; K562, 24h, conc 1 (µM)) of the same molecule?
Answer: 0

Question: What about the “Hoechst 33342 nuclear staining” value (K562; K562, 24h, conc 3 (µM)) of the same molecule?
Answer: 0

Question: What about the “Hoechst 33342 nuclear staining” value (K562; K562, 24h, conc 10 (µM)) of the same molecule?
Answer: 2 (score 2 relating to strong activity comprising more than 50% of the cells)

Question: What about the “Hoechst 33342 nuclear staining” value (K562; K562, 48h, conc 0.3 (µM)) of the same molecule?
Answer: 0

Question: And the “Hoechst 33342 nuclear staining” value (K562; K562, 48h, conc 1 (µM))?
Answer: 0

Question: What about the “Hoechst 33342 nuclear staining” value (K562; K562, 48h, conc 3 (µM)) of the same molecule?
Answer: 1 (1 relating to weak activity comprising less than 50% of the cells)

Question: What about the “Hoechst 33342 nuclear staining” value (K562; K562, 48h, conc 10 (µM)) of the same molecule?
Answer: 2 (score 2 relating to strong activity comprising more than 50% of the cells)

Question: What about the “Hoechst 33342 nuclear staining” value (HeLa [4]; 24h, conc 0.3 (µM)) of the same molecule?
Answer: 0

Question: What about the “Hoechst 33342 nuclear staining” value (HeLa [4]; 24h, conc 1 (µM)) of the same molecule?
Answer: 0

Question: And the “Hoechst 33342 nuclear staining” value (HeLa [4]; 24h, conc 3 (µM))?
Answer: 0

Question: And the “Hoechst 33342 nuclear staining” value (HeLa [4]; 24h, conc 10 (µM))?
Answer: 0

Question: What about the “Hoechst 33342 nuclear staining” value (HeLa [4]; 48h, conc 0.3 (µM)) of the same molecule?
Answer: 0

Question: And the “Hoechst 33342 nuclear staining” value (HeLa [4]; 48h, conc 1 (µM))?
Answer: 0

Question: And the “Hoechst 33342 nuclear staining” value (HeLa [4]; 48h, conc 3 (µM))?
Answer: 2 (score 2 relating to strong activity comprising more than 50% of the cells)

Question: What about the “Hoechst 33342 nuclear staining” value (HeLa [4]; 48h, conc 10 (µM)) of the same molecule?
Answer: 2 (score 2 relating to strong activity comprising more than 50% of the cells)

Question: And the “Hoechst 33342 nuclear staining” value (KB; 24h, conc 0.3 (µM))?
Answer: 0

Question: And the “Hoechst 33342 nuclear staining” value (KB; 24h, conc 1 (µM))?
Answer: 0

Question: And the “Hoechst 33342 nuclear staining” value (KB; 24h, conc 3 (µM))?
Answer: 0

Question: What about the “Hoechst 33342 nuclear staining” value (KB; 24h, conc 10 (µM)) of the same molecule?
Answer: 2 (score 2 relating to strong activity comprising more than 50% of the cells)

Question: What about the “Hoechst 33342 nuclear staining” value (KB; 48h, conc 0.3 (µM)) of the same molecule?
Answer: 0

Question: What about the “Hoechst 33342 nuclear staining” value (KB; 48h, conc 1 (µM)) of the same molecule?
Answer: 0

Question: What about the “Hoechst 33342 nuclear staining” value (KB; 48h, conc 3 (µM)) of the same molecule?
Answer: 2 (score 2 relating to strong activity comprising more than 50% of the cells)

Question: What about the “Hoechst 33342 nuclear staining” value (KB; 48h, conc 10 (µM)) of the same molecule?
Answer: 2 (score 2 relating to strong activity comprising more than 50% of the cells)

Question: And the “Hoechst 33342 nuclear staining” value (Jurkat [5]; 24h, conc 0.3 (µM))?
Answer: 0

Question: And the “Hoechst 33342 nuclear staining” value (Jurkat [5]; 24h, conc 1 (µM))?
Answer: 0

Question: And the “Hoechst 33342 nuclear staining” value (Jurkat [5]; 24h, conc 3 (µM))?
Answer: 1 (1 relating to weak activity comprising less than 50% of the cells)

Question: What about the “Hoechst 33342 nuclear staining” value (Jurkat [5]; 24h, conc 10 (µM)) of the same molecule?
Answer: 2 (score 2 relating to strong activity comprising more than 50% of the cells)

Question: What about the “Hoechst 33342 nuclear staining” value (Jurkat [5]; 48h, conc 0.3 (µM)) of the same molecule?
Answer: 0

Question: And the “Hoechst 33342 nuclear staining” value (Jurkat [5]; 48h, conc 1 (µM))?
Answer: 2 (score 2 relating to strong activity comprising more than 50% of the cells)

Question: And the “Hoechst 33342 nuclear staining” value (Jurkat [5]; 48h, conc 3 (µM))?
Answer: 2 (score 2 relating to strong activity comprising more than 50% of the cells)

Question: And the “Hoechst 33342 nuclear staining” value (Jurkat [5]; 48h, conc 10 (µM))?
Answer: 2 (score 2 relating to strong activity comprising more than 50% of the cells)

Question: And the “percentage of positively stained cells (AnnexinV/7-AAD staining)” value (A20)?
Answer: 2 (score 2 relates to more than 50% positivity)
